Patent US4990499A, “Anti-herpes simplex virus activity of 5-alkoxymethyl-2'-deoxycytidimes and their 5-monophosphates” (priority 1989, dated 1991)
“Also recorded” adds a separate entry of the source.

Legend:
[1] = system: Deoxynucleoside Triphosphate (dNTP) Pools in Vero Cells Infected with Herpes Simplex Virus Type 1; experiment: Deoxynucleoside triphosphate (dNTP) pools in HSV-1 infected Vero cells; assay type: cell-based
Protocol: Example 9 was repeated, except that the Vero cells subjected to the treatment had all been infected with HSV-1 KOS strain prior to the treatment.
^a Cells were infected with 10 PFU/cell of HSV1 KOS strain for one
hour. Treatments were given for seven hours.
^a Cells were infected with 10 PFU/cell of HSV1, KOS strain after
^b H4 dUrd in MEM was added immediately after adsorption and
^c H4 dUrd in MEM was added immediately after adsorption and
(§1) Vero cells and HSV-infected Vero cells were treated with dGUO and dGUO and H4 dUrd. The cells were then assayed for the presence of deoxynucleoside triphosphates. Untreated Vero cells were also assayed for the presence of deoxynucleoside triphophate to provide a control.
^c Cells were infected with 10 PFU/cell of HSV1 strain KOS for one

in vitro = conditions: monkey, vero cells
Protocol: The survival and viability of Vero cells grown in the presence of 2'-deoxyguanosine, H4 dUrd and deoxyguanosine+H4 dUrd was determined.

HSV-1, KOS [2] = experiment: HSV-1 KOS infectivity (virus yield) in Vero cells after removal of drugs; assay type: cell-based, Herpes simplex virus type 1; conditions: up to 2120 μM (highest concentration tested)
Protocol: Vero cells were infected with HSV-1, KOS strain and then samples of the infected cells were treated with MMdCyd in various quantities and with MMdCyd in various quantities together with 530 μM of H4 dUrd. Cells were washed twice with 0.4 ml of MEM to remove residual drug, overlaid with growth medium and incubated for 72 h. The virus was harvested by two cycles of freezing and thawing. The culture fluid from each treatment was pooled and assayed for virus yield.
^b H4 dUrd 530 μM (125 μg/ml) was added along with MMdCyd.

HSV-1, KOS [3] = experiment: HSV-1 KOS infectivity in Vero cells prior to washing of drugs; assay type: cell-based, Herpes simplex virus type 1; conditions: at less than 2120 μM (500 μg/ml)
Protocol: Vero cells were infected with HSV-1, KOS strain and then treated with MMdCyd in various quantities, and also with MMdCyd in various quantities together with a constant amount of H4 dUrd. The virus infectivity was observed and the results are given in Table 5 and are shown graphically in FIG. 3.
^a Virus infectivity was scored using following parameters: rounding
of cells, plaque formation and loss of monolayer structure.
^b Concentration of H4 dUrd used was 530 μM (125 μg/ml).

[4] = system: Deoxynucleoside Triphosphate (dNTP) Pools in Uninfected Vero Cells; experiment: Deoxynucleoside triphosphate (dNTP) pools in uninfected (mock-infected) Vero cells; assay type: cell-based; conditions: Table 7, uninfected Vero cells, treatment 7 hours, ± S.E.
Protocol: Vero cells were treated with MMdCyd, H4 dUrd and MMdCyd+H4 dUrd. The cells were then assayed for the presence of deoxynucleoside triphosphates. Untreated Vero cells were also assayed for the presence of deoxynucleoside triphosphates, to provide a control.
^a Cells were mock infected for one hour. Different treatments were
^b Values are means of at least two assays of triplicate cell
as §1
Vero cells were treated with N-methyl-MMdCyd. The cells were then assayed for dNTP pools.

HSV-1 DNA Polymerase [5] = target: T1, HSV-1 DNA Polymerase (Human herpesvirus 1, UniProt P04293); experiment: In vitro DNA synthesis by HSV-1 DNA polymerase ([3H]dAMP incorporation); assay type: biochemical, Herpes simplex virus type 1
T1 sequence (P04293 whole entry): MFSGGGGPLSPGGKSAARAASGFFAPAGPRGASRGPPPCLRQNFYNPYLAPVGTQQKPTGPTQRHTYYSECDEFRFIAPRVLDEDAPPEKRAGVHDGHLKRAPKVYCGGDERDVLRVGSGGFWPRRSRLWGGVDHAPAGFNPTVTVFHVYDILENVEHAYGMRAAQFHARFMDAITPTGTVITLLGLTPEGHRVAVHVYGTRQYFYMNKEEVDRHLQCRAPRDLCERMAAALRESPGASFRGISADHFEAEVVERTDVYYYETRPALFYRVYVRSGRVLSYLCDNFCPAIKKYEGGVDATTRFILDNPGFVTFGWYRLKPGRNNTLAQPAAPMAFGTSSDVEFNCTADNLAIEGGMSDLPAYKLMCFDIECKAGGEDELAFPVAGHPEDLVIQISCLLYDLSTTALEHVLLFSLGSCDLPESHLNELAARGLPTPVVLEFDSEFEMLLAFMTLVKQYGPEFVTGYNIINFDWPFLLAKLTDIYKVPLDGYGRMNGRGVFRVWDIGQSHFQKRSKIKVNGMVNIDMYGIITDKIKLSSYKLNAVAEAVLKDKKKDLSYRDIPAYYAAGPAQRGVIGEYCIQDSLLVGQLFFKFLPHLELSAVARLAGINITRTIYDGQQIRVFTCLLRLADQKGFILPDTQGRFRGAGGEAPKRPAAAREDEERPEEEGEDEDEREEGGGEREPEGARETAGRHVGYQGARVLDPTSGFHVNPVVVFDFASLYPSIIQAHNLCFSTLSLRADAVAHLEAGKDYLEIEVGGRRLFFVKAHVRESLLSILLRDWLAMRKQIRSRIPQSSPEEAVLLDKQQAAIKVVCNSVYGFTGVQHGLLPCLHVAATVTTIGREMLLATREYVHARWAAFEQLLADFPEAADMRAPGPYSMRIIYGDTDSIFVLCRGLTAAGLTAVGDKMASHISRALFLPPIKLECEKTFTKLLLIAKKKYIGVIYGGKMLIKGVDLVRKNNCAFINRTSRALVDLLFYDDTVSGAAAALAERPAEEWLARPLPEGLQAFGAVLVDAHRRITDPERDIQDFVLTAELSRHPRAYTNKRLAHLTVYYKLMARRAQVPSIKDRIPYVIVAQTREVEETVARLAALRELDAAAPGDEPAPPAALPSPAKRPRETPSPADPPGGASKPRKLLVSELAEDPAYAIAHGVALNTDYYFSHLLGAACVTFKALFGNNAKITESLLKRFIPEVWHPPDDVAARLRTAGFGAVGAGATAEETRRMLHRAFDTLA
Protocol: The relative in vitro DNA synthesis by HSV-1 DNA Polymerase using dCTP or MMdCTP as the rate limiting substrate was determined. The synthesis was followed by assaying an incorporation of tritium labelled dAMP.
+ unlabelled dNTP concentration 10 μM
++ Radio labelled [^3 H]dAMP conc 0.2 μM
*One hundred percent activity represents 27355 cpm of [^3 H]dAMP
(§2) The number of pmoles of [^3 H] dAMP incorporated into control samples (`O`MMdCTP) was subtracted from pmoles of test samples. Other nucleotides,dATP, dTTP and dGTP were in excess (10 μm). Each assay was performed in triplicate.
(§3) ^+ unlabeled dNTP concentration (10 μM).
(§4) ^++ 0.2 μM of [^3 H]dATP was used in each assay.

HSV-1 DNA Polymerase [6] = target: T1, HSV-1 DNA Polymerase; experiment: Kinetic analysis / inhibition of HSV-1 DNA polymerase; assay type: biochemical
Protocol: (§5) The inhibition of HSV-1 and human DNA polymerase alpha by MMdCTP was studied and the results shown graphically in FIG. 16. Assay conditions were specific for each enzyme and each assay was performed in triplicate.

[7] = target: T2, human DNA polymerase alpha (Homo sapiens, UniProt P09884); experiment: In vitro DNA synthesis by human DNA polymerase alpha ([3H]dAMP incorporation); assay type: biochemical
T2 sequence (P09884 1-1462): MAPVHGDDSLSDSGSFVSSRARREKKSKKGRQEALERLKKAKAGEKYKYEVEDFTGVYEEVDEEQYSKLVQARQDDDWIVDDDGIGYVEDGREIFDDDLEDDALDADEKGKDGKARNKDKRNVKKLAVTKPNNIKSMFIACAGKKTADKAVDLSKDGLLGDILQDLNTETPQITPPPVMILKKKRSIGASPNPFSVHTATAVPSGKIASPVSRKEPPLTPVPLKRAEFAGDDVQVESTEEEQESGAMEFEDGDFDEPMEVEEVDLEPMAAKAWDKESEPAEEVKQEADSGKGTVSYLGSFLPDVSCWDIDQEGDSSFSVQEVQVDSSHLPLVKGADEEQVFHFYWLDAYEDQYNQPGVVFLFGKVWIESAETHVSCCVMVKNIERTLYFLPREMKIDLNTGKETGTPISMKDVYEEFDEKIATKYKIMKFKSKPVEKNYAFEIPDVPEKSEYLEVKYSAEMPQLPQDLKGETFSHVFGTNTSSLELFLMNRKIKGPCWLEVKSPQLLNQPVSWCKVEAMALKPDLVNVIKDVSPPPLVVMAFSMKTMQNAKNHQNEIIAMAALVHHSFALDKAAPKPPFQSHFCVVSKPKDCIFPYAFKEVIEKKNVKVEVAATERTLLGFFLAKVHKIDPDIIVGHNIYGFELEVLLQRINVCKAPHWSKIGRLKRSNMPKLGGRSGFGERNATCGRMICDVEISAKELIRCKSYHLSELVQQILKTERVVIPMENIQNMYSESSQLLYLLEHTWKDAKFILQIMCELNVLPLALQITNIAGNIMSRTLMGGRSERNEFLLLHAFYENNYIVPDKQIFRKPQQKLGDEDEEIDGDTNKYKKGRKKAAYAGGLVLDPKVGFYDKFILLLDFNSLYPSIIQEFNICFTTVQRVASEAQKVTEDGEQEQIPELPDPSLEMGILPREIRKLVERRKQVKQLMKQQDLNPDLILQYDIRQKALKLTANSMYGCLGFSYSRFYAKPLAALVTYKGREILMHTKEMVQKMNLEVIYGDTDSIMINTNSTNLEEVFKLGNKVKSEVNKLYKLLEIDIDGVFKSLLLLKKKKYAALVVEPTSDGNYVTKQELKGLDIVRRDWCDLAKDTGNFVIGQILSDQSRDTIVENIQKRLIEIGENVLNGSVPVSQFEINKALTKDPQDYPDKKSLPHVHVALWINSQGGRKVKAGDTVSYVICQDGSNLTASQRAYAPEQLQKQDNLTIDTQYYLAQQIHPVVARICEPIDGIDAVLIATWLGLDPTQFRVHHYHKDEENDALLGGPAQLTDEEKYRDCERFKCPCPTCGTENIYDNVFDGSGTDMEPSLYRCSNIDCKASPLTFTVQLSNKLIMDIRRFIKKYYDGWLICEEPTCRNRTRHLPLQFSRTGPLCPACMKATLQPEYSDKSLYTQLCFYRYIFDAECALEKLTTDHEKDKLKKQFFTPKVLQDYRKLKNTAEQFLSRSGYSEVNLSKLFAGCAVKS
Protocol: A comparison of in vitro DNA synthesis by viral and cellular DNA polymerases with MMdCTP as an alternative substrate. The results are shown graphically in FIG. 14 and compare HSV-1 DNA polymerase and human DNA polymerase alpha activity.
as §2, §3, §4

E. coli DNA Polymerase 1 = E. coli DNA Polymerase 1 (Escherichia coli, UniProt P00582); experiment: In vitro DNA synthesis by E. coli DNA polymerase 1 ([3H]dAMP incorporation); assay type: biochemical
E. coli DNA Polymerase 1, sequence (P00582 whole entry): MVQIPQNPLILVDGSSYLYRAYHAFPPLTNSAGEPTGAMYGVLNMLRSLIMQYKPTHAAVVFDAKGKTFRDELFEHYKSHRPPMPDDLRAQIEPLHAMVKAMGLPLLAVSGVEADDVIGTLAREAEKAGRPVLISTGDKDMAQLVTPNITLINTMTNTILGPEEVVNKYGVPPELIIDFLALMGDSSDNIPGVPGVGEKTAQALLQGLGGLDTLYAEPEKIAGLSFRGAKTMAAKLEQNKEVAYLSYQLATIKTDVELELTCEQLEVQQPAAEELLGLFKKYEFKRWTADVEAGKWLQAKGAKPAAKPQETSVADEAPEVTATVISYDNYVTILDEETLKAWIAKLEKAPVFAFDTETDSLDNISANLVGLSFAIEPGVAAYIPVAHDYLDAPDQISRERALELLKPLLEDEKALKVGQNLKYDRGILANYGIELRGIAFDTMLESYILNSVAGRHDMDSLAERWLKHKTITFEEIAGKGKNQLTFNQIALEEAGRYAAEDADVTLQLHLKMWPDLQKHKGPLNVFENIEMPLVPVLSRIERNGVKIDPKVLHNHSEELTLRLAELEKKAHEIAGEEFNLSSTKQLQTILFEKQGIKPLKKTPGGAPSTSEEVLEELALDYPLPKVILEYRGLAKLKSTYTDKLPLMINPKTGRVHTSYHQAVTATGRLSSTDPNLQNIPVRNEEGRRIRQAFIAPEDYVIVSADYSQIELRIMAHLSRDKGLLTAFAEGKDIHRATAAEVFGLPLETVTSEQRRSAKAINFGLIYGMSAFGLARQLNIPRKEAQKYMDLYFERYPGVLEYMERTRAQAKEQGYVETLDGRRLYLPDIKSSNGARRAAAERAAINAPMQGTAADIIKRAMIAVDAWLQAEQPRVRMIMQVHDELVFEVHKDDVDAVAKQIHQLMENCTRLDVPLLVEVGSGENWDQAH
Protocol: ^a Enzymatic assays were carried out with 1 unit of Sigma E. coli DNA
Polymerase 1. dTTP, dGTP and [^3 H] dATP were non limiting (5 μM).
^b Values obtained are net after subtracting "0" samples which did no
^c Amount of NMeMMdCTP used with each concentration of dCTP was 0.625

[8] = system: Nc1ccn([C@H]2C[C@H](O)[C@@H](COP(=O)(O)OP(=O)(O)OP(=O)(O)O)O2)c(=O)n1; experiment: Kinetic analysis / inhibition of HSV-1 DNA polymerase; assay type: biochemical; conditions: other: dCTP
Protocol: as §5

[9] = Table 8, HSV-1 KOS infected Vero cells, 10 PFU/cell, treatment 7 hours, ± S.E.
[10] = Table 9, HSV-1 KOS infected, H4 dUrd pre-incubated 2 hours then removed, fresh MEM or MMdCyd

O=C1NC(O)CCN1[C@H]1C[C@H](O)[C@@H](CO)O1 (stereo partly shown) [H4 dUrd, tetrahydro-2'-deoxyuridine]
dATP pool [1, 9]: 94.7 ± 2.06 .rho.moles/10^6 cells | dCTP pool [1, 9]: 326 ± 12.6 .rho.moles/10^6 cells | dGTP pool [1, 9]: 101.3 ± 2.28 .rho.moles/10^6 cells | dTTP pool [1, 9]: 0.5 ± 0.34 .rho.moles/10^6 cells | dATP pool [1, 10]: 119.4 ± 3.1 .rho.moles/10^6 cells | dCTP pool [1, 10]: 312 ± 10.1 .rho.moles/10^6 cells | dGTP pool [1, 10]: 141 ± 2.6 .rho.moles/10^6 cells | dTTP pool [1, 10]: 2 ± 0.41 .rho.moles/10^6 cells | viability at 1000 µM (in vitro): 100% | antiviral activity of H4 dUrd (HSV-1, KOS [2]): did not exhibit antiviral activity; also recorded: no antiviral activity | antiviral activity of H4 dUrd alone (HSV-1, KOS [3]): did not exhibit antiviral activity | dATP pool [4]: 17.6 ± 1.28 .rho.moles/10^6 cells | dCTP pool [4]: 30.8 ± 1.20 .rho.moles/10^6 cells | dGTP pool [4]: 32 ± 1.3 .rho.moles/10^6 cells | dTTP pool [4]: 27.5 ± 1.25 .rho.moles/10^6 cells

COCc1cn([C@H]2C[C@H](O)[C@@H](COP(=O)(O)OP(=O)(O)OP(=O)(O)O)O2)c(=O)nc1N [MMdCTP, 5-methoxymethyl-2'-deoxycytidine triphosphate]
utilization as alternative substrate ([^3 H] dAMP incorporation) (HSV-1 DNA Polymerase [5]; HSV-1 DNA polymerase, FIG. 14): readily utilized | preference as substrate versus dCTP (HSV-1 DNA Polymerase [5]; HSV-1 induced DNA polymerase): preferred as a substrate to dCTP | Ki (HSV-1 DNA Polymerase [6]): 380 nM | inhibition of HSV-1 versus human DNA polymerase alpha (HSV-1 DNA Polymerase [6]; FIG. 16, HSV-1 compared with human DNA polymerase alpha): clear difference in effect | Km/Ki (HSV-1 DNA Polymerase [6]; Km of dCTP / Ki of MMdCTP): 0.4 | utilization as alternative substrate ([^3 H] dAMP incorporation) ([7]; human DNA polymerase alpha, FIG. 14): little used

Nc1ccn([C@H]2C[C@H](O)[C@@H](COP(=O)(O)OP(=O)(O)OP(=O)(O)O)O2)c(=O)n1 [dCTP, 2'-deoxycytidine triphosphate, reference compound]
[^3 H]dAMP incorporation representing 100% activity (HSV-1 DNA Polymerase [5]; 10 μM dCTP, HSV-1 DNA polymerase): 27355 cpm | incorporation into DNA / substrate (HSV-1 DNA Polymerase [5]; HSV-1 DNA polymerase): excellent substrate for DNA synthesis | cpm [^3 H]dAMP incorporated (E. coli DNA Polymerase 1; nucleotide 0.039 μM (mixture: dCTP at this concentration + N-MeMMdCTP 0.625 μM)): 35 cpm | cpm [^3 H]dAMP incorporated (E. coli DNA Polymerase 1; nucleotide 0.078 μM (mixture: dCTP at this concentration + N-MeMMdCTP 0.625 μM)): 118 cpm | cpm [^3 H]dAMP incorporated (E. coli DNA Polymerase 1; nucleotide 0.156 μM (mixture: dCTP at this concentration + N-MeMMdCTP 0.625 μM)): 216 cpm | cpm [^3 H]dAMP incorporated (E. coli DNA Polymerase 1; nucleotide 0.312 μM (mixture: dCTP at this concentration + N-MeMMdCTP 0.625 μM)): 527 cpm | cpm [^3 H]dAMP incorporated (E. coli DNA Polymerase 1; nucleotide 0.625 μM (mixture: dCTP at this concentration + N-MeMMdCTP 0.625 μM)): 1171 cpm | cpm [^3 H]dAMP incorporated (E. coli DNA Polymerase 1; nucleotide 1.25 μM (mixture: dCTP at this concentration + N-MeMMdCTP 0.625 μM)): 1603 cpm | cpm [^3 H]dAMP incorporated (E. coli DNA Polymerase 1; nucleotide 2.50 μM (mixture: dCTP at this concentration + N-MeMMdCTP 0.625 μM)): 1554 cpm | cpm [^3 H]dAMP incorporated (E. coli DNA Polymerase 1; nucleotide 5.0 μM (mixture: dCTP at this concentration + N-MeMMdCTP 0.625 μM)): 2032 cpm | [^3 H]dAMP incorporation representing 100% activity ([7]; 10 μM dCTP, Human DNA polymerase): 4059 cpm | incorporation into DNA / substrate ([7]; Human α-DNA polymerase): excellent substrate for DNA synthesis

HSV-1 DNA Polymerase (Human alphaherpesvirus 1 strain 17)
Km [8]: 0.15 µM
